Read-outs that look alike come from different tables or passages of the source.
What was measured:
Experiment in all cases: biochemical
Design in all cases: species or system human cell line lysate
[1] = target: Serine/threonine-protein kinase N1 ; PKN1 ; Q16512 (Homo sapiens, UniProt Q16512)
[2] = target: Serine/threonine-protein kinase MARK2 ; MARK2 ; Q7KZI7 (Homo sapiens, UniProt Q7KZI7)
[3] = target: Serine/threonine-protein kinase BRSK2 ; BRSK2 ; Q8IWQ3 (Homo sapiens, UniProt Q8IWQ3)
[4] = target: Tyrosine-protein kinase FRK ; FRK ; P42685 (Homo sapiens, UniProt P42685)
Tyrosine-protein kinase FRK ; FRK ; P42685, sequence (P42685 whole entry): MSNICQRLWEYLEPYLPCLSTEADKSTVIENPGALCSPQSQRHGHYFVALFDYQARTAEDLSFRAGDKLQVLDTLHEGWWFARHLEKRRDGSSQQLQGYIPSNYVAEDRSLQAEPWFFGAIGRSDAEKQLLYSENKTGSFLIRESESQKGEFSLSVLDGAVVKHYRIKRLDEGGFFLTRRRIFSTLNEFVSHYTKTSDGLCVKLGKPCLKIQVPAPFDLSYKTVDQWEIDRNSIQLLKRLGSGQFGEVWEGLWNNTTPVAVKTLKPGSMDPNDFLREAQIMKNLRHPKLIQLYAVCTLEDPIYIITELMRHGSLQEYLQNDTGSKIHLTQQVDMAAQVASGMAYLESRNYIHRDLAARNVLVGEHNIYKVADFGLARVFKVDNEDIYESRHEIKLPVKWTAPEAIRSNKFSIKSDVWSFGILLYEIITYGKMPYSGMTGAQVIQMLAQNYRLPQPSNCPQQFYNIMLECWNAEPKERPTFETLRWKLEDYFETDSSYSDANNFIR

[5] = target: Dual specificity protein kinase CLK1 ; CLK1 ; P49759 (Homo sapiens, UniProt P49759)
Dual specificity protein kinase CLK1 ; CLK1 ; P49759, sequence (P49759 whole entry): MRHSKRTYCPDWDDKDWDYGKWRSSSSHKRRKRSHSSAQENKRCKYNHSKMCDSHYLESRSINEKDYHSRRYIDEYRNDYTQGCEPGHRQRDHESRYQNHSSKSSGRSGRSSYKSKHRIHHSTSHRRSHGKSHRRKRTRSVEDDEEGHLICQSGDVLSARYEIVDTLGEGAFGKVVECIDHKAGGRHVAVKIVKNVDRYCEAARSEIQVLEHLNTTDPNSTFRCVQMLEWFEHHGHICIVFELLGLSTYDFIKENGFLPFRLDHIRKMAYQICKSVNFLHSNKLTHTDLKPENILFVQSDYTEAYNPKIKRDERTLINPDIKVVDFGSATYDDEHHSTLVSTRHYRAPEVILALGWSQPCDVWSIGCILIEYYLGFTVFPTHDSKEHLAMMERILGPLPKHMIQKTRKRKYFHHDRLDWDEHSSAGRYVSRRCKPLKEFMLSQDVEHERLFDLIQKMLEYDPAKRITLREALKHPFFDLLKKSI

[6] = target: Deoxycytidine kinase ; DCK ; P27707 (Homo sapiens, UniProt P27707)
Deoxycytidine kinase ; DCK ; P27707, sequence (P27707 whole entry): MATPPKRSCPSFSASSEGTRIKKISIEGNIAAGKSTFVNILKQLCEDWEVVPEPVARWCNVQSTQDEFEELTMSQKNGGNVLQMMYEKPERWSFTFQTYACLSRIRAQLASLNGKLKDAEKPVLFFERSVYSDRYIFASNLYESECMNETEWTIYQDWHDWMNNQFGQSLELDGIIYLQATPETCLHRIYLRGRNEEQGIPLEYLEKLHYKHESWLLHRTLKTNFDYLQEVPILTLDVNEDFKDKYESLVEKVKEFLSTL

[7] = target: Mitogen-activated protein kinase 15 ; MAPK15 ; Q8TD08 (Homo sapiens, UniProt Q8TD08)
[8] = target: Isoform 2 of Serine/threonine-protein kinase TAO2 ; TAOK2 ; Q9UL54-2 (Homo sapiens, UniProt Q9UL54)
[9] = target: Isoform 4 of Serine/threonine-protein kinase Nek2 ; NEK2 ; P51955-4 (Homo sapiens, UniProt P51955)
Isoform 4 of Serine/threonine-protein kinase Nek2 ; NEK2 ; P51955-4, sequence (P51955 whole entry, canonical isoform, one chain of several): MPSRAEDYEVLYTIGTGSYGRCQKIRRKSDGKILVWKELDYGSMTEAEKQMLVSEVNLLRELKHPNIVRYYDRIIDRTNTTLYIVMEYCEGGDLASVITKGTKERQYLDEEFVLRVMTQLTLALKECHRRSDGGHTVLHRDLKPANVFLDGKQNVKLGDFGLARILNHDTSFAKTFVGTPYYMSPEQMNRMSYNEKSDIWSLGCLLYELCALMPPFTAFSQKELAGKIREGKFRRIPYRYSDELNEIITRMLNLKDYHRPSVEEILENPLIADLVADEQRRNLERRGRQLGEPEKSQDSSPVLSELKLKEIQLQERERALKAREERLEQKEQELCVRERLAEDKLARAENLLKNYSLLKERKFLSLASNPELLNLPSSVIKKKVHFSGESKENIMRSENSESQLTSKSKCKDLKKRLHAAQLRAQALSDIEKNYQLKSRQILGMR

[10] = target: T1, Dual specificity mitogen-activated protein kinase kinase 3 ; MAP2K3 ; P46734 (Homo sapiens, UniProt P46734)
T1 sequence (P46734 1-347): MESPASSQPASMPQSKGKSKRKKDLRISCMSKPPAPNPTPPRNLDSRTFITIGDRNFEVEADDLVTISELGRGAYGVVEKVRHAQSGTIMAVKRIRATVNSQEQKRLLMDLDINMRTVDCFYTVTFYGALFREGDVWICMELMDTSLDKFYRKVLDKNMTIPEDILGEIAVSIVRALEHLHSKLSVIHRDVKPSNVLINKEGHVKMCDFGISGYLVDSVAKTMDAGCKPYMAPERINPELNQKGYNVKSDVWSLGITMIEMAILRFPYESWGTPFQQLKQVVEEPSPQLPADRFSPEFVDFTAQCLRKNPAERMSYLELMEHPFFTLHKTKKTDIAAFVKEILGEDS

[11] = target: Non-receptor tyrosine-protein kinase TNK1 ; TNK1 ; Q13470 (Homo sapiens, UniProt Q13470)
[12] = target: Isoform 2 of Mitogen-activated protein kinase kinase kinase 20 ; MAP3K20 ; Q9NYL2-2 (Homo sapiens, UniProt Q9NYL2)
Isoform 2 of Mitogen-activated protein kinase kinase kinase 20 ; MAP3K20 ; Q9NYL2-2, sequence (Q9NYL2 whole entry, canonical isoform): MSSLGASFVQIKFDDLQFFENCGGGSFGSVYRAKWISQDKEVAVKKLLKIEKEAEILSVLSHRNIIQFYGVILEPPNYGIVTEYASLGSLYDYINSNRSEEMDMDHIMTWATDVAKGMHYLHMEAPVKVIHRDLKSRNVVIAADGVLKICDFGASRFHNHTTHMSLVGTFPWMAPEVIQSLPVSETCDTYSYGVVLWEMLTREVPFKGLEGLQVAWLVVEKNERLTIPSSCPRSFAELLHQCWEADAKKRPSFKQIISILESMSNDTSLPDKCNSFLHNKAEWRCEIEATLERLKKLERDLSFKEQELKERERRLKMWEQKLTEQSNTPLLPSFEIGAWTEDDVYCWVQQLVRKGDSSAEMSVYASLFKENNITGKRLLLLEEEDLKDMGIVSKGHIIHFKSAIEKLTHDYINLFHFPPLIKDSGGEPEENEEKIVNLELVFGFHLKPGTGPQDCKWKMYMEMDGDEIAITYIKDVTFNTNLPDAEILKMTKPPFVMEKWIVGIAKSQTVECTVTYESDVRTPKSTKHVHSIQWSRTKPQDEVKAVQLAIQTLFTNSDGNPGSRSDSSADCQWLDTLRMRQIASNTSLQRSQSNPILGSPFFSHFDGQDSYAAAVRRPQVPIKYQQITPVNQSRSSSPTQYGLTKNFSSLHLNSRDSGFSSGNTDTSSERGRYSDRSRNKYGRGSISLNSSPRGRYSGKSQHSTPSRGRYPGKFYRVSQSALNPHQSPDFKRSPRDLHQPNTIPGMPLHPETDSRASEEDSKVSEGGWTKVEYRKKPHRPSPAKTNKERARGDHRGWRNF

[13] = target: Citron Rho-interacting kinase ; CIT ; O14578 (Homo sapiens, UniProt O14578)
[14] = target: Ribosomal protein S6 kinase alpha-5 ; RPS6KA5 ; O75582 (Homo sapiens, UniProt O75582)
[15] = target: Ketosamine-3-kinase ; FN3KRP ; Q9HA64 (Homo sapiens, UniProt Q9HA64)
Ketosamine-3-kinase ; FN3KRP ; Q9HA64, sequence (Q9HA64 whole entry): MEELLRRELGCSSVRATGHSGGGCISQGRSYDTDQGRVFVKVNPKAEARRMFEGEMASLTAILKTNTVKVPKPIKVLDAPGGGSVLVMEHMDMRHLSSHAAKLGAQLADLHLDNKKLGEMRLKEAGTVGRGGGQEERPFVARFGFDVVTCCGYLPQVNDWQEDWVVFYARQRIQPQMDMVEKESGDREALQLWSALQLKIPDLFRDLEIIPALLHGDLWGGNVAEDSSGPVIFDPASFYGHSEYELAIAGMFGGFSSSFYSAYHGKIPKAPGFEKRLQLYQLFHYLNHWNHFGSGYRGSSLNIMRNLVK

[16] = target: Mitogen-activated protein kinase kinase kinase 1 ; MAP3K1 ; Q13233 (Homo sapiens, UniProt Q13233)
Mitogen-activated protein kinase kinase kinase 1 ; MAP3K1 ; Q13233, sequence (Q13233 whole entry): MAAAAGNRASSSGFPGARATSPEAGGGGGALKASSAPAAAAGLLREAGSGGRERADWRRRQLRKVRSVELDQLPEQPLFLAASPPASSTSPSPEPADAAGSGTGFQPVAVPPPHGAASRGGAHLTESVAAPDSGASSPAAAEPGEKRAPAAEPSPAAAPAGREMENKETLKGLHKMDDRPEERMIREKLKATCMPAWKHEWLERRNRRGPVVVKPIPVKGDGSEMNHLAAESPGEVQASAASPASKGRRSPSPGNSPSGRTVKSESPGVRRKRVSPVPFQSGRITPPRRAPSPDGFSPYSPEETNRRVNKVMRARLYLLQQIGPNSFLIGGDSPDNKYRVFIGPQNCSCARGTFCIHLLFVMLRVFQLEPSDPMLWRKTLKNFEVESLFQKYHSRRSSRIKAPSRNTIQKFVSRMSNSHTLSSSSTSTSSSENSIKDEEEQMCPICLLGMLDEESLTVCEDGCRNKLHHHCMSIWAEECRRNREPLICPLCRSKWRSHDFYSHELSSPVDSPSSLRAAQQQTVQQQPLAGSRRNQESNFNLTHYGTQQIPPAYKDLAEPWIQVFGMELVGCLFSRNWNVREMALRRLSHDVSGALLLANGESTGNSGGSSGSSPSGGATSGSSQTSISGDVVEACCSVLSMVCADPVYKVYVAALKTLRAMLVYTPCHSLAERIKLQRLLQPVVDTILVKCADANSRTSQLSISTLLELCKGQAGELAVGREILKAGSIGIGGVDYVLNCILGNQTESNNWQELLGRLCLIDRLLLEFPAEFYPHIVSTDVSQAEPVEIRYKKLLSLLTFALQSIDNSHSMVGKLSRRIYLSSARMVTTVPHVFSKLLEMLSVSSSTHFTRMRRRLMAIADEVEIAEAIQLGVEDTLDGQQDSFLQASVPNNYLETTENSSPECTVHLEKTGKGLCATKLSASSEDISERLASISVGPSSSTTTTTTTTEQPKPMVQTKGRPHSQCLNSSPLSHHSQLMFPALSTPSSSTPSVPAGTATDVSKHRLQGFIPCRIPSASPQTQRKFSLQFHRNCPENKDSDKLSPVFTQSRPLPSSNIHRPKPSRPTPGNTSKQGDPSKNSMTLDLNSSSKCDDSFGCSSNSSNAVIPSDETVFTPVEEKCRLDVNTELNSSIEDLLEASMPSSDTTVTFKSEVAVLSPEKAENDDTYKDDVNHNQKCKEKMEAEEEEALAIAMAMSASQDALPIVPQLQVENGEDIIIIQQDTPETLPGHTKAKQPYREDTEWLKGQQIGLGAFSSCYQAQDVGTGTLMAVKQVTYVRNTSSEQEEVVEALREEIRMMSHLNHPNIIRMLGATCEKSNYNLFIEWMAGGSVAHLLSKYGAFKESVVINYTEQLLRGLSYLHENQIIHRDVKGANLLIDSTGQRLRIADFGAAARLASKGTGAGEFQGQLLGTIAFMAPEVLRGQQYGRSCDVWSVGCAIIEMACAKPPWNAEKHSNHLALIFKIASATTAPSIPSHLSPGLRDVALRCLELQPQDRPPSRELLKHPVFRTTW

[17] = target: T2, Serine/threonine-protein kinase NLK ; NLK ; Q9UBE8 (Homo sapiens, UniProt Q9UBE8)
T2 sequence (Q9UBE8 1-527): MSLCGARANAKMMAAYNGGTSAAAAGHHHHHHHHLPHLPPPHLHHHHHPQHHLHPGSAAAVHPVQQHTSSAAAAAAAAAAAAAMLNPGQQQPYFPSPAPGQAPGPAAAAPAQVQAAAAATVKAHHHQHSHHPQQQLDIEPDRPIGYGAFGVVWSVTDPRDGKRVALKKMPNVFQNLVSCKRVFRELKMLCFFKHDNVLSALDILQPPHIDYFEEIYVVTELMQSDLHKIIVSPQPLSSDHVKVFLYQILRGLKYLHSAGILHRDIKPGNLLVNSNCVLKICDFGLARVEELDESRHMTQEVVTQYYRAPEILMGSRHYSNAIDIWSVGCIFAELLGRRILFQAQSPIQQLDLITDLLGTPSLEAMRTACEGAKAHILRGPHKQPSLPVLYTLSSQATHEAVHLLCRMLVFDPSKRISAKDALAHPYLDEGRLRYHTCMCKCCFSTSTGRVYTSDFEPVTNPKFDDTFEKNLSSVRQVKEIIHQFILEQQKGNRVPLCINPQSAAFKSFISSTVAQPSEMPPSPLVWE

[18] = read-out: BAY-1143572 (10 µM) / %Intensity relative to DMSO
[19] = read-out: BAY-1251152 (10 µM) / %Intensity relative to DMSO

Serine/threonine-protein kinase BRSK2 ; BRSK2 ; Q8IWQ3, sequence (Q8IWQ3 whole entry, one chain of several): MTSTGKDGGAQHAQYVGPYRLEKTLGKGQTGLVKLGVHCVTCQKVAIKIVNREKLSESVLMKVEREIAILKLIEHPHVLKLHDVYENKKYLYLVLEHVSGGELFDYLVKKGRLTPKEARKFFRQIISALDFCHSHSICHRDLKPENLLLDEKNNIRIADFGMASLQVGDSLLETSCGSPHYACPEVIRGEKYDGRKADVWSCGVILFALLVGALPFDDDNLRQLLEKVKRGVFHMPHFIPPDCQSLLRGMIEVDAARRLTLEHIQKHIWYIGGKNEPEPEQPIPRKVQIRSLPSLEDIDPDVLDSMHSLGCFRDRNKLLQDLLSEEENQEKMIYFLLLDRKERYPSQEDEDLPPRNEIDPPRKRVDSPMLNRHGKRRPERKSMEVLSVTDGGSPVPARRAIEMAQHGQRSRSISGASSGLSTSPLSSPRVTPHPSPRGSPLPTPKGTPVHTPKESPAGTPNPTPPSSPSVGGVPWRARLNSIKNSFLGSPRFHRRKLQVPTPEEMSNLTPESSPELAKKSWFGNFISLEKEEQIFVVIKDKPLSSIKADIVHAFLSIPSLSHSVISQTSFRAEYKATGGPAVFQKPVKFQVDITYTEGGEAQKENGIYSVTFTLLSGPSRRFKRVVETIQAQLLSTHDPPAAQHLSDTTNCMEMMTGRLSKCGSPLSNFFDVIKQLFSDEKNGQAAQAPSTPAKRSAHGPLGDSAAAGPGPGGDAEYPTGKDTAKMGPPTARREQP

COc1cc(F)ccc1-c1ncnc(Nc2cccc(C[S@](C)(=N)=O)c2)n1 [BAY-1143572]
remaining activity at 10 µM [1, 18]: 156%
remaining activity at 10 µM [2, 18]: 110%
remaining activity at 10 µM [3, 18]: 104%
remaining activity at 10 µM [4, 18]: 125%
remaining activity at 10 µM [5, 18]: 116%
remaining activity at 10 µM [6, 18]: 121%
remaining activity at 10 µM [7, 18]: 98.2%
remaining activity at 10 µM [8, 18]: 95.8%
remaining activity at 10 µM [9, 18]: 115%
remaining activity at 10 µM [10, 18]: 136%
remaining activity at 10 µM [11, 18]: 113%
remaining activity at 10 µM [12, 18]: 65.2%
remaining activity at 10 µM [13, 18]: 99.8%
remaining activity at 10 µM [14, 18]: 109%
remaining activity at 10 µM [15, 18]: 117%
remaining activity at 10 µM [16, 18]: 73.3%
remaining activity at 10 µM [17, 18]: 103%

COc1cc(F)ccc1-c1cc(Nc2cc(CS(C)(=N)=O)ccn2)ncc1F (stereo not shown) [BAY-1251152]
remaining activity at 10 µM [1, 19]: 137%
remaining activity at 10 µM [2, 19]: 103%
remaining activity at 10 µM [3, 19]: 114%
remaining activity at 10 µM [4, 19]: 123%
remaining activity at 10 µM [5, 19]: 104%
remaining activity at 10 µM [6, 19]: 108%
remaining activity at 10 µM [7, 19]: 101%
remaining activity at 10 µM [8, 19]: 76.6%
remaining activity at 10 µM [9, 19]: 114%
remaining activity at 10 µM [10, 19]: 119%
remaining activity at 10 µM [11, 19]: 109%
remaining activity at 10 µM [12, 19]: 81.6%
remaining activity at 10 µM [13, 19]: 92.5%
remaining activity at 10 µM [14, 19]: 110%
remaining activity at 10 µM [15, 19]: 114%
remaining activity at 10 µM [16, 19]: 82.4%
remaining activity at 10 µM [17, 19]: 115%
